Where a name gives a salt, the structure may show the parent alone.
Columns and labels:
[1] = tested on: human cultured PBMC; assay: Cell migration test (in vitro, human MIP-1β-induced migration of human cultured PBMC); assay type: cell-based; conditions: human MIP-1β in lower well, incubated 1.5 hours, average value (n=3), read-out: IC50 value, inhibitory activity against human MIP-1β-induced cell migration of human cultured PBMC
Description: Preparation of PBMC (Peripheral Blood Mononuclear Cell)
Human venous blood (50 mL) collected by using syringe with heparin sodium (final concentration: 10 U/mL, heparin sodium injection 1000 U/mL, Shimizu Pharmaceutical Co., Ltd.) was stored into 50 mL of conical tube made by polypropylene. To a Lymphoprep tube (HYCOMED PHARMA, Cat. No 1019818), 16.5 mL of DPBS (−) (GIBCO, Cat No. 14190-136) and a blood sample were added, jiggled several times, then centrifuged at 3000 rpm for 10 minutes at room temperature. […]
50 μL of 5×10^5 cells of the human PBMC suspension (culture medium) and 50 μL of the solution of the test compound (0-2 μmol/L: double concentration of a final concentration) were added to an upper well of transwell (coster), and 300 μL of 60 nmol/L of the human MIP-1β (Pepro tech, Cat. No. 300-09) and 300 μL of a double concentration of the solution of the test compound were added to a lower well. […] 100 μL of the solution was transferred to white 96 well plate for fluorescence from lower well by pipetting, an amount of cells was measured by using Celltiter Glo (Promega) (a measurement of ATP), Cell migration inhibition ratio was calculated by the following calculating formula. The value of IC50 was calculated from cell migration inhibition ratio of each concentration. […]

[2] = Stability test in liver microsome of monkey; conditions: liver microsome of monkey 1 mg/mL, test compound 5 μmol/L, 30 minutes at 37° C.

CS(=O)(=O)Nc1ccc(Oc2ccc(CN3CCC(N(C(=O)Nc4ccc(F)cc4)c4ccsc4)CC3)cn2)cc1 [Example 7(29), N-(4-{[5-({4-[{[(4-fluorophenyl)amino]carbonyl}(3-thienyl)amino]-1-piperidinyl}methyl)-2-pyridinyl]oxy}phenyl)methanesulfonamide hydrochloride (or dihydrochloride)]
IC50 [1]: 1.2 nM

CC(=O)Nc1cc(NC(=O)N(c2ccccc2)C2CCN(Cc3ccc(Oc4ccc(NS(C)(=O)=O)cc4)nc3)CC2)ccc1F [Example 7(83), N-[2-fluoro-5-({[{1-[(6-{4-[(methylsulfonyl)amino]phenoxy}-3-pyridinyl)methyl]-4-piperidinyl}(phenyl)amino]carbonyl}amino)phenyl]acetamide hydrochloride (or dihydrochloride)]
residual ratio of the unmetabolite [2]: 88%

Source: patent US8604207B2, “Nitrogenous heterocyclic derivative and medicine containing the same as an active ingredient” (Ono Pharmaceutical Co., Ltd., priority 2004, dated 2013)
